Measurements: US20250002524A1, “CAP ANALOGS HAVING AN ACYCLIC LINKER TO THE GUANINE DERIVATIVE NUCLEOBASE” (CureVac SE, priority 2021, published 2025)
Read-outs that look alike come from different tables or passages of the source.

Molecular target: T1, T7 RNA polymerase (Escherichia phage T7, UniProt P00573)
T1 construct: purchased Thermo Fisher Scientific
Assay type: biochemical
From the text: A DNA sequence was introduced into a modified pUC19 derived vector backbone to comprise a 5′-UTR with a ribozyme cleavage site (the HSD17B4 5′ UTR), a 3′-UTR, a histone-stem-loop structure and a stretch of adenine nucleotides (A100), at the 3′-terminal end. The obtained plasmid DNA was transformed and propagated in bacteria using common protocols and plasmid DNA was extracted, purified, and enzymatically linearized using a restriction enzyme. The obtained linearized plasmid DNA was used for RNA in vitro transcription as outlined next to obtain the mRNA with the sequence shown in SEQ ID NO: 1.
Linearized plasmid DNA template (50 μg/ml) was transcribed at 37° C. for 3-5 hours in 80 mM HEPES/KOH, pH 7.5, 24 mM MgCl2, 2 mM spermidine, 40 mM DTT, 5 U/ml pyrophosphatase (Thermo Fisher Scientific), 200 U/ml RiboLock RNase inhibitor (Thermo Fisher Scientific), 5000 U/ml T7 RNA polymerase (Thermo Fisher Scientific).
The non-modified and modified nucleotide mixture was sequence-optimized (herein referred to as sequence-optimized IVT-mix) preferably in accordance with a procedure as described in WO2015/188933. Example 1. In short, the sequence-optimized IVT-mix comprised the four ribonucleoside triphosphates (NTPs) GTP, ATP, CTP and (modified) UTP in a sequence optimized ratio, wherein the fraction of each of the four ribonucleoside triphosphates in the sequence-optimized IVT-mix corresponded to the fraction of the respective nucleotide in the mRNA molecule to be synthetized, a buffer, a DNA template, and an RNA polymerase. Accordingly, for mRNAs i) and ii) as set out above, the concentrations of the nucleotides were 0.42 mM ATP, 0.57 mM CTP, 0.28 mM UTP, and 0.5 mM GTP (all Thermo Fisher Scientific).
Following RNA in vitro transcription, linear DNA templates were removed by Pulmozyme (Ratiopharm) (2500 U/ml, 3.2 mM CaCl2, 30 min at 37° C.). The obtained mRNAs i) and ii) as well as the mRNAs used in example 3, Table Ex-6; example 4, Table Ex-7; and example 5, FIG. 5 were purified using RP-HPLC (PureMessenger®; according to WO2008/077592). The obtained mRNAs used in example 3, Table Ex-8; example 4, Table Ex-9; and example 5, FIG. 6, were purified using Monarch RNA cleanup kit or Qiagen RNeasy mini kit according to the protocol of the manufacturer and used for dsRNA determination, capping analysis and in vitro expression experiments (example 5).
The capping efficacy can be analyzed by an HPLC assay of a 5′ fragment of mRNAs obtained according to the protocol of example 2. Thus, the peaks obtained in such an HPLC assay are indicative of i) correctly capped mRNA, ii) capped mRNA lacking a single nucleotide G (which is a typical side product if T7 RNA-polymerase is used), iii) uncapped mRNA and iv) further products of unknown structure. 5′ fragments for this kind of analysis are typically 15 to 20 nucleotides in length.
In order to provide fragments of a length of 18 nucleotides (assuming that the Cap-nucleotide is present, the fragment is 18 nucleotides long; for uncapped mRNAs, the fragment is accordingly 17 nucleotides long) for HPLC analysis, the mRNAs i) and ii) obtained in example 2 were first cleaved at the above-mentioned 5′ ribozyme cleavage site using a ribozyme designed to cleave at the relevant position. The ribozyme reaction contained 150 μM of the respective mRNA, 150 μM of the ribozyme, 50 mM NaCl and 0.625 mM EDTA in a total reaction volume of 120 μL. For the annealing reaction, the mixture was incubated in a PCR cycler for 3 min at 95° C., followed by a cool down ramp of 0.1° C. per second to a final temperature of 25° C., with a final incubation of 10 min at 25° C. After addition of 30 μL of a 200 mM MgCl2 solution buffered with 250 mM TRIS/HCl (pH 7.5), the reaction mix was incubated at 25° C. for 1 h. The reaction was stopped by addition of 24 μL of a 250 mM EDTA solution. RNA-only and Ribozyme-only controls were prepared per RNA and ribozyme, respectively.

[1] = Table Ex-8, mRNA capped with 15.23 mM cap0 analog, N1-Methyl-pseudouridine, purified with Monarch RNA cleanup kit or Qiagen RNeasy mini kit
[2] = Table Ex-6, mRNA capped with named cap analog (2.0 mM cap, 0.5 mM GTP), RP-HPLC purified mRNA

T1 sequence (P00573 whole entry): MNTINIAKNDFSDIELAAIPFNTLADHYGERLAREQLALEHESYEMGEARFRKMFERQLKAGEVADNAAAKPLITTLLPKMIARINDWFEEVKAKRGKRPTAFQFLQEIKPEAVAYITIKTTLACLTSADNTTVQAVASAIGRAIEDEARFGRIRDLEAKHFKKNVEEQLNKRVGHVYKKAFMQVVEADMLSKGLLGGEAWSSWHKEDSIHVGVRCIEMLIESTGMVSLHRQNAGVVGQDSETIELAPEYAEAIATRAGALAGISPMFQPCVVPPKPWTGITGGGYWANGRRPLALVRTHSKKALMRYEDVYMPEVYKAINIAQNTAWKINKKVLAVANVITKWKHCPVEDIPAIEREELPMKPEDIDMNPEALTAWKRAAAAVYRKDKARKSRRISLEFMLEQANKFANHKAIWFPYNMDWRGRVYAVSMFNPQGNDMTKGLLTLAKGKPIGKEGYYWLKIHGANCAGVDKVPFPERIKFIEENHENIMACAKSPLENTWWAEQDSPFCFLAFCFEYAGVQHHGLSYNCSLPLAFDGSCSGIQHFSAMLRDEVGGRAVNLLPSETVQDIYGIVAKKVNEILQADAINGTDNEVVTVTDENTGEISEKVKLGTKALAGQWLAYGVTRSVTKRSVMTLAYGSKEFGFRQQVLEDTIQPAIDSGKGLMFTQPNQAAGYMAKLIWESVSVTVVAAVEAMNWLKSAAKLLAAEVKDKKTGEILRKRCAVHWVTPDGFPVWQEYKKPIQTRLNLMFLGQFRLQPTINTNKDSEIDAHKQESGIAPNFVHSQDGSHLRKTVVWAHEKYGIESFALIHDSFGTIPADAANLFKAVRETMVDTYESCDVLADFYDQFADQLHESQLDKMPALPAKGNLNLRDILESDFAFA

Row | SMILES | Relative peak area Capped RNA minus G [1] [%] | Relative peak area Correctly capped RNA [1] [%] | Relative peak area Uncapped RNA [1] [%] | Relative peak area Unidentified peaks [1] [%] | Relative peak area Capped RNA minus G [2] [%] | Relative peak area Uncapped RNA [2] [%] | Relative peak area Unidentified peaks [2] [%] | Relative peak area Correctly capped RNA (Table Ex-6, mRNA capped with named cap analog (2.0 mM cap, 0.5 mM GTP), RP-HPLC purified mRNA, 5′ fragment, UV 260 nm) [%]
1 | C[n+]1cn(C[S+]([O-])CCCP(=O)(O)OP(=O)([O-])OP(=O)(O)OC[C@H]2O[C@@H](n3cnc4c(=O)[nH]c(N)nc43)[C@H](O)[C@@H]2O)c2nc(N)[nH]c(=O)c21 (stereo partly drawn) [Phosphonate Variant 2] | 6.3 | 76.9 | 15.0 | 1.8 | – | – | – | –
2 | C[n+]1cn(CC[S+]([O-])CCP(=O)(O)OP(=O)([O-])OP(=O)(O)OC[C@H]2O[C@@H](n3cnc4c(=O)[nH]c(N)nc43)[C@H](O)[C@@H]2O)c2nc(N)[nH]c(=O)c21 (stereo partly drawn) [Phosphonate Variant 5] | 4.3 | 77.1 | 13.1 | 5.5 | – | – | – | –
3 | C[n+]1cn(CCS(=O)(=O)CCP(=O)(O)OP(=O)([O-])OP(=O)(O)OC[C@H]2O[C@@H](n3cnc4c(=O)[nH]c(N)nc43)[C@H](O)[C@@H]2O)c2nc(N)[nH]c(=O)c21 [Phosphonate Variant 6] | 4.2 | 75.5 | 14.9 | 5.4 | – | – | – | –
4 | C[n+]1cn(CCCS(=O)(=O)CCP(=O)(O)OP(=O)([O-])OP(=O)(O)OC[C@H]2O[C@@H](n3cnc4c(=O)[nH]c(N)nc43)[C@H](O)[C@@H]2O)c2nc(N)[nH]c(=O)c21 [Phosphonate Variant 9] | 4.4 | 73.4 | 15.7 | 6.5 | – | – | – | –
5 | C[n+]1cn(CCSCP(=O)(O)OP(=O)([O-])OP(=O)(O)OC[C@H]2O[C@@H](n3cnc4c(=O)[nH]c(N)nc43)[C@H](O)[C@@H]2O)c2nc(N)[nH]c(=O)c21 [Phosphonate Variant 10] | 23.4 | 63.0 | 8.7 | 4.9 | – | – | – | –
6 | C[n+]1cn(CCS(=O)(=O)CP(=O)(O)OP(=O)([O-])OP(=O)(O)OC[C@H]2O[C@@H](n3cnc4c(=O)[nH]c(N)nc43)[C@H](O)[C@@H]2O)c2nc(N)[nH]c(=O)c21 [Phosphonate Variant 12] | 8.6 | 75.5 | 12.2 | 3.7 | – | – | – | –
7 | C[n+]1cn(CCCOP(=O)(O)OP(=O)([O-])OP(=O)(O)OC[C@H]2O[C@@H](n3cnc4c(=O)[nH]c(N)nc43)[C@H](O)[C@@H]2O)c2nc(N)[nH]c(=O)c21 [Propylene Cap] | 21.6 | 64.7 | 12.3 | 1.4 | – | – | – | –
8 | C[n+]1cn(C2OC(COP(=O)(O)OP(=O)([O-])OP(=O)(O)OCC3OC(n4cnc5c(=O)[nH]c(N)nc54)C(O)C3O)C(O)C2O)c2nc(N)[nH]c(=O)c21 (stereo not drawn) [mCap, m7G(5′)ppp(5′)G, reference compound] | 12.2 | 63.3 | 20.3 | 4.2 | 8.6 | 19.8 | 10.1 | 61.5
